Data published in patent US20100028889A1, “COMPANION DIAGNOSTIC ASSAYS FOR CANCER THERAPY” (ABBOTT LABORATORIES, priority 2006, published 2010).
Like-named read-outs stand apart in the source and are kept apart here.

What was measured:
Format in all cases: cell-based, human
DMS153 = test: cell cytotoxicity EC50, CellTiter Glo, SCLC cell line
Experimental: (§1) The SCLC and leukemia/lymphoma cell lines listed below were obtained from the American Type Culture Collection (Manassas, Va.), Deutsche Sammlung von Mikroorganismen und Zellkulturen (DSMZ, Braunsweig, Germany), or were the generous gift from Dr. Louis Staudt (National Cancer Institute) and were cultured as described in Tse, C., Shoemaker, A. R., Adickes, J., et al., “ABT-263: a potent and orally bioavailable Bcl-2 family inhibitor,” Cancer Res 2008; 68: 3421-3428; and Tahir, S. K., Yang, X., Anderson, M. G., et al., “Influence of Bcl-2 family members on the cellular response of small-cell lung cancer cell lines to ABT-737,” Cancer Res 2007; 67: 1176-1183.
(§2) Cells were treated at 10,000 or 50,000 cells per well for adherent or suspension cells, respectively, in 96-well microtiter plates in the presence of 10% human serum for 48 hours with or without ABT-263, in a humidified chamber with 5% CO2. ABT-263 was synthesized as previously described in Tse, C., Shoemaker, A. R., Adickes, J., et al., “ABT-263: a potent and orally bioavailable Bcl-2 family inhibitor,” Cancer Res 2008; 68: 3421-3428; and Oltersdorf, T., Elmore, S. W., Shoemaker, A. R., et al., “An inhibitor of Bcl-2 family proteins induces regression of solid tumours,” Nature 2005; 435: 677-681, and cell cytotoxicity EC50 values were assessed using CellTiter Glo (Promega, Madison Wis.).

NCI-1048 = test: as above
Experimental: as §1, §2

NCI-H1436 = test: as above
Experimental: as §1, §2

NCI-H1672 = test: as above
Experimental: as §1, §2

NCI-H1688 = test: as above
Experimental: as §1, §2

NCI-H187 = test: as above
Experimental: as §1, §2

NCI-H1963 = test: as above
Experimental: as §1, §2

NCI-H196 = test: as above
Experimental: as §1, §2

NCI-H2081 = test: as above
Experimental: as §1, §2

NCI-H446 = test: as above
Experimental: as §1, §2

NCI-H847 = test: as above
Experimental: as §1, §2

NCI-H889 = test: as above
Experimental: as §1, §2

Granta = test: cell cytotoxicity EC50, CellTiter Glo, Mantle Cell Lymphoma cell line
Experimental: as §1, §2

HBL-2 = test: as above
Experimental: as §1, §2

JeKo-1 = test: as above
Experimental: as §1, §2

Mino = test: as above
Experimental: as §1, §2

SP53 = test: as above
Experimental: as §1, §2

[1] = tested on: leukemia/lymphoma cell lines; test: categorisation of the leukemia/lymphoma cell line panel by EC50; conditions: EC50 less than or equal to 4.8 μM
Experimental: as §2
o divide the training set cell lines into sensitive and resistant categories, a bivariate fit curve was generated for the ABT-263 EC50 versus rank and fitted with a smoothing spline (lambda=1), and the maximum increase in the slope was approximately 5 μM for both sets. […]
Division of cell lines into sensitive and resistant categories. […] To identify gene expression patterns that can predict sensitivity to ABT-263, as well as genes that might contribute to resistance to treatment, RNA expression profiles for a panel of SCLC cell lines were determined, as well as a panel of leukemia and lymphoma cell lines. […]

[2] = 10% human serum, 48 hours, read-out: EC50
[3] = Homo sapiens, read-out: Response Designation

CC1(C)CCC(c2ccc(Cl)cc2)=C(CN2CCN(c3ccc(C(=O)NS(=O)(=O)c4ccc(N[C@H](CCN5CCOCC5)CSc5ccccc5)c(S(=O)(=O)C(F)(F)F)c4)cc3)CC2)C1 [ABT-263, N-(4-(4-((2-(4-chlorophenyl)-5,5-dimethyl-1-cyclohex-1-en-1-yl)methyl)piperazin-1-yl)benzoyl)-4-(((1R)-3-(morpholin-4-yl)-1-((phenylsulfanyl)methyl)propyl)amino)-3-((trifluoromethyl)sulfonyl)benzenesulfonamide]
EC50 (DMS153; DMS-153, 10% human serum, 48 hours, read-out: EC50): 11 µM
EC50 (DMS153; Homo sapiens, DMS-153, read-out: Response Designation): > 4.1 µM
EC50 (NCI-1048; [2]): 2.86 µM
EC50 (NCI-1048; [3]): ≤ 4.1 µM
EC50 (NCI-H1436; [2]): 1 µM
EC50 (NCI-H1436; [3]): ≤ 4.1 µM
EC50 (NCI-H1672; [2]): 0.7 µM
EC50 (NCI-H1672; [3]): ≤ 4.1 µM
EC50 (NCI-H1688; [2]): 8.07 µM
EC50 (NCI-H1688; [3]): > 4.1 µM
EC50 (NCI-H187; [2]): 0.21 µM
EC50 (NCI-H187; [3]): ≤ 4.1 µM
EC50 (NCI-H1963; [2]): 0.18 µM
EC50 (NCI-H1963; [3]): ≤ 4.1 µM
EC50 (NCI-H196; [2]): 38.6 µM
EC50 (NCI-H196; [3]): > 4.1 µM
EC50 (NCI-H2081; [2]): 12 µM
EC50 (NCI-H2081; [3]): > 4.1 µM
EC50 (NCI-H446; [2]): 4.1 µM
EC50 (NCI-H446; [3]): ≤ 4.1 µM
EC50 (NCI-H847; [2]): 0.06 µM
EC50 (NCI-H847; [3]): ≤ 4.1 µM
EC50 (NCI-H889; [2]): 0.14 µM
EC50 (NCI-H889; [3]): ≤ 4.1 µM
EC50 (Granta; [2]): 0.041 µM
EC50 (Granta; [3]): ≤ 4.8 µM
EC50 (HBL-2; HBL2, 10% human serum, 48 hours, read-out: EC50): 0.031 µM
EC50 (HBL-2; Homo sapiens, HBL2, read-out: Response Designation): ≤ 4.8 µM
EC50 (JeKo-1; [2]): 1.74 µM
EC50 (JeKo-1; [3]): ≤ 4.8 µM
EC50 (Mino; Homo sapiens, MINO, read-out: Response Designation): ≤ 4.8 µM
EC50 (Mino; Mino, 10% human serum, 48 hours, read-out: EC50): 0.033 µM
EC50 (SP53; [2]): 0.14 µM
EC50 (SP53; [3]): ≤ 4.8 µM
leukemia/lymphoma cell lines categorized as being sensitive [1]: 25 out of 31
